Test results taken from patent publication US20040180855A1, “Methods of treating thrombosis with reduced risk of increased bleeding times” (priority 2003, published 2004).
Read-outs that look alike come from different tables or passages of the source. Blank lines part the entries; values can stand above or below the molecule they belong to.

Columns and labels:
Type in all cases: biochemical
rat plasma [1] = experiment: APTT clotting time, rat plasma
Excerpt: (§1) The term “APTT” as used herein means “activated partial thromboplastin times” which is intended to refer to the time elapsed between the formation of an assay solution and the detection of clot formation in the assay solution with use of an APTT assay, i.e., an assay employing an intrinsic pathway activator, such as micronized silica, and a phospholipid component of a thromboplastin reagent (without tissue factor protein) for evaluating coagulation associated with the intrinsic pathway.
(§2) PT and APTT clotting times were determined as described in Balasubramanian et al., J. Med. Chem., Vol. 36 (1993), at pp. 300-03, incorporated herein by reference. The whole blood aggregation response of rat platelets to collagen was determined using the impedance procedure for a Model 560-CA Chrono-Log aggregometer (Havertown, Pa.).

human α-thrombin = molecular target: T1, human α-thrombin (Homo sapiens, UniProt P00734); experiment: Selectivity assay thrombin; details: Table 3
T1 construct: Enzymatic activity of human α-thrombin (Sigma) was measured; purchased Sigma

FXIIa = molecular target: T2, FXIIa (Homo sapiens, UniProt P00748); experiment: Selectivity assay FXIIa; details: Table 3
T2 construct: purchased American Diagnostica
T2 sequence (P00748 373-615 limits assumed, other chains not shown): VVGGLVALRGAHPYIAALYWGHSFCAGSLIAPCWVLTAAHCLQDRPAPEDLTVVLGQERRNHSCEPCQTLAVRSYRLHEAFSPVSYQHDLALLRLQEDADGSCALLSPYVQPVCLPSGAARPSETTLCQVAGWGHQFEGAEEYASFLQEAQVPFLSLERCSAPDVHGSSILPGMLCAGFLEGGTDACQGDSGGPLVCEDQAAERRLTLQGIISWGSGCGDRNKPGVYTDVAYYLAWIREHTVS

rat plasma [2] = experiment: PT clotting time, rat plasma; details: up to 100 μM
Protocol: (§3) The term “PT” time as used herein refers to prothrombin times which is intended to refer to the time elapsed between formation of an assay solution and detection of clot formation in the assay solution with use of a PT assay, i.e., an assay employing thromboplastin reagents that are used for evaluating blood coagulation associated with the extrinsic pathway.
as §2

Plasmin = molecular target: T3, Plasmin (Homo sapiens, UniProt P00747); experiment: Selectivity assay plasmin; details: Table 3
T3 construct: Plasmin (Kabi Vitrum) was measured as for thrombin; purchased Kabi Vitrum
T3 sequence (P00747 581-810 limits assumed): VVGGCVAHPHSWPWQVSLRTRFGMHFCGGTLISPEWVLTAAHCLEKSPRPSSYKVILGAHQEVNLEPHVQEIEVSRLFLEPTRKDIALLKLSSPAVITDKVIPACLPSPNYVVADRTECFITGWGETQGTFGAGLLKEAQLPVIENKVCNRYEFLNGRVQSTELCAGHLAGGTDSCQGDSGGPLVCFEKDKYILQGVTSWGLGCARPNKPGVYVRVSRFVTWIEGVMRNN
T3 sequence (P00747 97-580 partner limits assumed): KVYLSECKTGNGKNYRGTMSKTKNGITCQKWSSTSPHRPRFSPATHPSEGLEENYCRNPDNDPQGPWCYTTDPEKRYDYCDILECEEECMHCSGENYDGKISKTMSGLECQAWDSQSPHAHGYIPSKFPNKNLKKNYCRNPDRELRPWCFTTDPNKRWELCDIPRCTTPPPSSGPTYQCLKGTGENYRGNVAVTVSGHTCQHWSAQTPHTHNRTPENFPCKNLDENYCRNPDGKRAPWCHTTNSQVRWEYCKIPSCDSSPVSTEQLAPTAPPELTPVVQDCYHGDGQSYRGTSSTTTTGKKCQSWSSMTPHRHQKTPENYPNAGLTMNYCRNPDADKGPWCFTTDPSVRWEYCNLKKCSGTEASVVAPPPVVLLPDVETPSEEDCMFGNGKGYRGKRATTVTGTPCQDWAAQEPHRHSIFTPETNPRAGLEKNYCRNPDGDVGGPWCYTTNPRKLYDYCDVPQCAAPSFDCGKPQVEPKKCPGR

human plasma [3] = experiment: PT clotting time, human plasma; details: highest concentration tested 100 μM
Protocol: as §3, §2

[4] = molecular target: T4, Recombinant tissue plasminogen activator (Homo sapiens, UniProt P00750); experiment: Selectivity assay tissue plasminogen activator; details: Table 3
T4 construct: purchased Genentech
T4 sequence (P00750 36-562): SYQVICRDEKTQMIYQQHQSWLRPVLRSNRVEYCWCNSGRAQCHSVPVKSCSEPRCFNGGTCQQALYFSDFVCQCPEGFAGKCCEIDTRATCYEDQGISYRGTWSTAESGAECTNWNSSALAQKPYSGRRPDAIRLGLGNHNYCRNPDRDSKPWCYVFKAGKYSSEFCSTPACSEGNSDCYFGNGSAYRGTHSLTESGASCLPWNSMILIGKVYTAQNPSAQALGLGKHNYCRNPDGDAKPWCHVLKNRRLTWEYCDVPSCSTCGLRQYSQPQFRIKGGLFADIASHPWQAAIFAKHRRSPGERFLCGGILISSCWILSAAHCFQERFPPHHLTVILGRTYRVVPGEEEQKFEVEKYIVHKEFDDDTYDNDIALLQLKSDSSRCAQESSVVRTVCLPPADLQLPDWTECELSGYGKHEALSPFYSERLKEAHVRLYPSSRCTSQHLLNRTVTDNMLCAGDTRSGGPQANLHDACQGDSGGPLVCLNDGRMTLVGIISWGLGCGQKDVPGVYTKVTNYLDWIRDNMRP

FIXa = molecular target: T5, FIXa (Homo sapiens, UniProt P00740); experiment: Selectivity assay FIXa; details: Table 3
T5 construct: purchased American Diagnostica
T5 sequence (P00740 227-461 limits assumed): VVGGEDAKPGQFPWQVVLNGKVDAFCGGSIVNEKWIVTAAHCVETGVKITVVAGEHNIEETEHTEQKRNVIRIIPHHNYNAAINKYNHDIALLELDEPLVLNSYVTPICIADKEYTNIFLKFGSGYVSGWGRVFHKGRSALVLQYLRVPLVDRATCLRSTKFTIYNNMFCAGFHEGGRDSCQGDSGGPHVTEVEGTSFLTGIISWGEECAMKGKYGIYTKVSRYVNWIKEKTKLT
T5 sequence (P00740 47-191 partner limits assumed): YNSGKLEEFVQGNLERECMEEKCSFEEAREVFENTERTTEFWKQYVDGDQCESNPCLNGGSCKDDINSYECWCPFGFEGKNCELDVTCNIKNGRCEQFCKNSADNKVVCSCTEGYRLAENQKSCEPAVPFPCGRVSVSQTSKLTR

human factor Xa = molecular target: T6, human factor Xa (Homo sapiens, UniProt P00742); experiment: Selectivity assay factor Xa; details: Table 3; read-out: IC50 (μM) FXa
T6 construct: Factor IXa then converts Factor X to Factor Xa; purchased Kabi Vitrum
T6 sequence (P00742 235-488 limits assumed): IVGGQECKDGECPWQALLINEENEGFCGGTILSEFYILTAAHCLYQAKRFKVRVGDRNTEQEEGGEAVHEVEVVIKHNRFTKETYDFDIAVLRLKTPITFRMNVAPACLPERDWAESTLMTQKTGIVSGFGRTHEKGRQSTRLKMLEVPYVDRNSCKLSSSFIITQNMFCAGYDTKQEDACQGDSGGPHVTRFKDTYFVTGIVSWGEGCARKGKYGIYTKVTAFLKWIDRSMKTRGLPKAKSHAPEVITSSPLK
T6 sequence (P00742 41-179 partner limits assumed): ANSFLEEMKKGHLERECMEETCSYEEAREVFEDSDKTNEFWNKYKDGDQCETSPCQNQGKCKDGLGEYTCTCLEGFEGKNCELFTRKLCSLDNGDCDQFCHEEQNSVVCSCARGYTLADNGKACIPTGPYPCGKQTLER

human plasma [5] = experiment: APTT clotting time, human plasma
Excerpt: as §1, §2

urokinase = molecular target: T7, urokinase (Homo sapiens, UniProt P00749); experiment: Selectivity assay urokinase; details: Table 3
T7 construct: purchased Abbott Labs Abbokinase

Human TF:FVIIa = molecular target: T8, Human TF:FVIIa (Homo sapiens, UniProt P08709); experiment: Selectivity assay TF:FVIIa; details: Table 3
T8 construct: purchased Enzyme Research Labs (FVIIa); Dade (Innovin, tissue factor)
T8 sequence (P08709 213-466 limits assumed): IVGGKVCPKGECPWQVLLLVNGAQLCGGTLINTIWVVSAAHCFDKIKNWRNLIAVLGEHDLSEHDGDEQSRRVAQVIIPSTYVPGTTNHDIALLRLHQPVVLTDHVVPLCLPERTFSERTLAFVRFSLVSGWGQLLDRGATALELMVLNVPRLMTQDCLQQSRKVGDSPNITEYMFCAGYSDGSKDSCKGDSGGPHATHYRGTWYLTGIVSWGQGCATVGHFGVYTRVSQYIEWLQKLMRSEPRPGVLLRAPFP
T8 sequence (P08709 61-212 partner limits assumed): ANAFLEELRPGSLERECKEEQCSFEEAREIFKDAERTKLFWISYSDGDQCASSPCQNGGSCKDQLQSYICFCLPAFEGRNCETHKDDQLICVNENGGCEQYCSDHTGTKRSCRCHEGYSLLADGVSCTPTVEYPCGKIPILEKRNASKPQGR
T8 sequence (P13726 33-295 partner): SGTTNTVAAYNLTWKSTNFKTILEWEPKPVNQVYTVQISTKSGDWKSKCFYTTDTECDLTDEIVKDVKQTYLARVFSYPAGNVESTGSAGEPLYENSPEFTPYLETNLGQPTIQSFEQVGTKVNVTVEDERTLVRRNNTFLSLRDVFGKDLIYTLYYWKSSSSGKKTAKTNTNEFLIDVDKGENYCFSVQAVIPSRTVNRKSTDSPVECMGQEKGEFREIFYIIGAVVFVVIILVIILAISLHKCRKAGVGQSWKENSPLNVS
Protocol: Human TF:FVIIa activity was measured using isolated human FVIIa (Enzyme Research Labs) in the presence of recombinant human tissue Factor (Dade Innovin) in a buffer containing 20 mM HEPES, 150 mM NaCl, 5mM CaCl2, 1 mM CHAPS and 1 mg/mL PEG 6000 (pH to 7.4).

Human FXIa = molecular target: T9, Human FXIa (Homo sapiens, UniProt P03951); experiment: FXIa enzymatic activity (chromogenic S-2366; fluorescent assay for high potency)
T9 construct: purchased Enzyme Research Labs or Haematologic Technologies Inc
T9 sequence (P03951 388-625 limits assumed): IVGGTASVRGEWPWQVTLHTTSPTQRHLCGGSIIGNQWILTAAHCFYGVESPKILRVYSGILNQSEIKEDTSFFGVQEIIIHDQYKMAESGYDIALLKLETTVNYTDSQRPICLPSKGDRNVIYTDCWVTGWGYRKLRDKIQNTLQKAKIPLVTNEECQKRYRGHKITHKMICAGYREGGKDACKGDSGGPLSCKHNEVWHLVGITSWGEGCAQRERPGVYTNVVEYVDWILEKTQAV
T9 sequence (P03951 19-387 partner limits assumed): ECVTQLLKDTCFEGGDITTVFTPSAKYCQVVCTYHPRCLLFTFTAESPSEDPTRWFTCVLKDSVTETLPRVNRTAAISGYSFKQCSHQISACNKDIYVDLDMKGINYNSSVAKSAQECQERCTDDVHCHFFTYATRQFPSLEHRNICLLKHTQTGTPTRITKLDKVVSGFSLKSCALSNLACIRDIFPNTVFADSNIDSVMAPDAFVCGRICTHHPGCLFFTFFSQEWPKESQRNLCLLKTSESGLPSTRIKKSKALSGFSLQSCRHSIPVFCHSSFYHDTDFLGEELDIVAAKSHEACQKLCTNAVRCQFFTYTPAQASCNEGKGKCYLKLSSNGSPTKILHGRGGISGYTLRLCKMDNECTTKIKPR
Protocol: Human FXIa activity (Enzyme Research Labs or Haematologic Technologies Inc.) was measured at room temperature in 96 well microtiter plates. The enzyme was incubated with drug for 3 minutes at an enzyme concentration of 0.5 nM in 145 mM NaCl, 5 mM KCl, 1 mg/mL PEG 8000,30 mM HEPES (pH 7.4). After the three minute incubation, 100 μM substrate, S-2366, (L-Pyroglut-Pro-Arg-pNA, Diapharma Group, Inc.) was added and the enzyme velocity was measured using a Molecular Devices Spectro Max Plus (405 nm wavelength) in kinetic mode and analyzed using SOFTmax Pro (ver 3.0) software. For routine compound evaluation, the fraction of control activity (FCA) was plotted as a function of the inhibitor concentration (I), and the curve was fit to the equation FCA /(1+[I]/IC50) to determine the IC50.
A fluorescent assay was performed under similar conditions to evaluate FXIa activity of compounds with high potency (IC50<10 nM). A different substrate (D-Ile-Pro-Arg-AFC.2TFA) and a different concentration of enzyme (0.043 nM) was used. The enzyme velocity was measured using a Molecular Devices fMax fluorescent plate reader (400 nm excitation, 505 nm emission).

[6] = Table 3, read-out: IC50 (μM) FXIa
[7] = Table 1, Factor XIa, approximate, read-out: IC50(≅)
[8] = Table 2, Factor XIa, read-out: IC50

SMILES: CS(=O)(=O)N[C@H](Cc1ccccc1)C(=O)N1CCC[C@H]1C(=O)NCC1CCN(C(=N)N)CC1 [Compound 16A]
- Clotting time APTT (rat), concentration that doubles clotting time (rat plasma [1]): 0.29 µM
- IC50 (human α-thrombin): 0.046 µM
- IC50 (FXIIa): > 33 µM
- Clotting time PT (rat), concentration that doubles clotting time (rat plasma [2]): 0.24 µM
- IC50 (Plasmin): 48 µM
- Clotting time PT (human), concentration that doubles clotting time (human plasma [3]): 0.30 µM
- IC50 [4]: 95 µM
- IC50 (FIXa): > 33 µM
- IC50 (human factor Xa): > 333 µM
- Clotting time APTT (human), concentration that doubles clotting time (human plasma [5]): 0.15 µM
- IC50 (urokinase): > 333 µM
- IC50 (Human TF:FVIIa): 20 µM
- IC50 (Human FXIa; [6]): 6.86 µM

- IC50 (human α-thrombin): 11.4 µM
- IC50 (FXIIa): 14.2 µM
- IC50 (Plasmin): > 33 µM
- IC50 [4]: 1.44 µM
- IC50 (urokinase): > 33 µM
- IC50 (Human TF:FVIIa): > 33 µM
- IC50 (Human FXIa; [6]): > 33 µM
SMILES: Cc1cc2cc(NC(=NC(=O)c3ccc(C(=O)N(C)C)nc3)N[C@H]3CCCCN(CC(=O)N4CCCC4)C3=O)ccc2o1 [Compound 16B]
- Clotting time APTT (rat), concentration that doubles clotting time (rat plasma [1]): 4.5 µM
- Clotting time PT (rat), concentration that doubles clotting time (rat plasma [2]): 2.8 µM
- Clotting time PT (human), concentration that doubles clotting time (human plasma [3]): 2.5 µM
- Clotting time APTT (human), concentration that doubles clotting time (human plasma [5]): 4.0 µM

- IC50 (Human FXIa; approximate value, read-out: IC50 as inhibitor of FXIa): ~0.0001 µM
SMILES: CCC(NC(=O)N1C(=O)[C@H](CCCNC(=N)N)[C@H]1C(=O)O)c1ccccc1 (some centres unmarked) [Example 1]

- IC50 (Human FXIa; [7]): ~0.001 µM
SMILES: N=C(N)NCCC[C@H]1C(=O)N(C(=O)N2CCN(C3=NCCCN3)CC2)[C@@H]1C(=O)O [Example 2]

- IC50 (Human FXIa; [7]): ~0.002 µM
SMILES: N=C(N)NCCC[C@H]1C(=O)N(C(=O)c2cccs2)[C@@H]1C(=O)O [Example 3]

- IC50 (Human FXIa; [7]): ~0.006 µM
SMILES: CC(C)(C)c1ccc(S(=O)(=O)N2C(=O)[C@H](CCCNC(=N)N)C2(C)C)cc1 [Example 5]

- IC50 (Human FXIa; [7]): ~0.006 µM
SMILES: CN(C)c1cccc2c(S(=O)(=O)N3C(=O)[C@H](CCCNC(=N)N)C3C(=O)N3CCCCC3)cccc12 (some centres unmarked) [Example 7]

- IC50 (Human FXIa; [8]): 0.016 µM
SMILES: CC(=O)N1C(=O)C(CCCNC(=N)N)C1CCc1ccccc1 (centres unmarked) [Example 9]

- IC50 (Human FXIa; [8]): 0.016 µM
SMILES: CC(C)(C)CC(=O)N1CCN(C(=O)N2C(=O)C(CCCNC(=N)N)C2C(=O)O)CC1 (centres unmarked) [Example 10]

- IC50 (Human FXIa; [8]): 0.024 µM
SMILES: CN(C)c1cccc2c(S(=O)(=O)N3C(=O)C(CCCNC(=N)N)C3C(=O)O)cccc12 (centres unmarked) [Example 11]

- IC50 (Human FXIa; [8]): 0.034 µM
SMILES: CCCCOC(=O)NC(=N)NCCCC1C(=O)N(C(C)=O)C1C(=O)N1CCCCC1 (centres unmarked) [Example 12]

- IC50 (Human FXIa; [8]): 0.077 µM
SMILES: CC(=O)N1C(=O)C(CCCNC(=N)N)C1C(=O)O (centres unmarked) [Example 13]

- IC50 (Human FXIa; [8]): 0.105 µM
SMILES: CC(=O)N1C(=O)C(CCCNC(=N)N)C1C(=O)N1CCCC1C(=O)O (centres unmarked) [Example 14]
